In ChEMBL document CHEMBL3797052 (Eur J Med Chem, 2016):

Key:
Type in all cases: functional
[1] = Cytotoxicity against human SKBR3 cells assessed as growth inhibition at 100 uM after 2 days by MTT assay; settings: SK-BR-3, 48 h, read-out: GI
[2] = Cytotoxicity against human HCT116 cells assessed as growth inhibition at 100 uM after 2 days by MTT assay; settings: HCT-116, 48 h, read-out: GI
[3] = Cytotoxicity against human SKBR3 cells assessed as growth inhibition at 10 uM after 2 days by MTT assay; settings: SK-BR-3, 48 h, read-out: GI
[4] = Cytotoxicity against human HCT116 cells assessed as growth inhibition at 10 uM after 2 days by MTT assay; settings: HCT-116, 48 h, read-out: GI

Row | SMILES | inhibition of growth at 100 µM [1] [%] | inhibition of growth at 100 µM [2] [%] | inhibition of growth at 10 µM [3] [%] | inhibition of growth at 10 µM [4] [%]
1 | CNC(=O)c1cc(Oc2ccc3nc(NC(=O)Nc4ccc(N5CCOCC5)cc4)sc3c2)ccn1 | 77.7 | 73.3 | 14.1 | 1.58
2 | CNC(=O)c1cc(Oc2ccc3nc(NC(=O)c4ccc(Cl)cc4Cl)sc3c2)ccn1 | 81 | 64.4 | 14 | 15.1
3 | CNC(=O)c1cc(Oc2ccc3nc(NC(=O)Nc4ccc(N5CCN(C)CC5)cc4)sc3c2)ccn1 | 86.4 | 95 | 30.5 | 24.6
4 | CNC(=O)c1cc(Oc2ccc3nc(NC(=O)Nc4cc(C(F)(F)F)ccc4Cl)sc3c2)ccn1 | 89.1 | 90 | 28.3 | 16.3
5 | CNC(=O)c1cc(Oc2ccc3nc(NC(=O)Nc4ccc(Br)cc4)sc3c2)ccn1 | 69.2 | 80 | 26.7 | 12.1
6 | CNC(=O)c1cc(Oc2ccc3nc(NC(=O)c4ccc(Cl)cc4)sc3c2)ccn1 | 83 | 80.5 | 18.9 | 27.5
7 | CNC(=O)c1cc(Oc2ccc3nc(NC(=O)Nc4ccc(Cl)cc4Cl)sc3c2)ccn1 | 91.7 | 93.6 | 22.3 | 32.2
8 | CNC(=O)c1cc(Oc2ccc3nc(NC(=O)c4cc(Cl)cc(Cl)c4)sc3c2)ccn1 | 84.2 | 15.8 | 9.62 | 13.4
9 | CNC(=O)c1cc(Oc2ccc3nc(NC(=O)c4cc5ccccc5o4)sc3c2)ccn1 | 52.4 | 77.5 | 54.4 | 9.15
10 | CNC(=O)c1cc(Oc2ccc3nc(NC(=O)Nc4ccc(F)cc4)sc3c2)ccn1 | 72.9 | 83.8 | 14.2 | 12.2
